Laboratory results: ChEMBL document CHEMBL1148661, “SAR studies: designing potent and selective LXR agonists” (Bioorg Med Chem Lett, 2006)

Experiments:
[1] = biological target: T1, Oxysterols receptor LXR-beta (Homo sapiens, UniProt P55055); type: functional, cell-based, CHO
T1 sequence (P55055 whole entry): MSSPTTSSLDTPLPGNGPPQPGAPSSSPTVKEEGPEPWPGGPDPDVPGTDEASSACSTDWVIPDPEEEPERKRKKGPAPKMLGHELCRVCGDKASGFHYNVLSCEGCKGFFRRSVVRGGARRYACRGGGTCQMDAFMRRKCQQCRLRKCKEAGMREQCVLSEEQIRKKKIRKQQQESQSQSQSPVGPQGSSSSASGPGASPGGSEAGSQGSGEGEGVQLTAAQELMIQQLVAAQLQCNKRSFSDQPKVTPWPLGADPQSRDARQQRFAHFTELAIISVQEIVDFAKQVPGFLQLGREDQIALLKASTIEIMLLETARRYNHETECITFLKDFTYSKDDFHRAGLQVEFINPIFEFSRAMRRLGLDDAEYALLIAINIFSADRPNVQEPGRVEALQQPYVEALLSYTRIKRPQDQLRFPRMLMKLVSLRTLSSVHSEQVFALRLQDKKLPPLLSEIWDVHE

[2] = biological target: T2, Oxysterols receptor LXR-alpha (Homo sapiens, UniProt Q13133)
T2 sequence (Q13133 whole entry): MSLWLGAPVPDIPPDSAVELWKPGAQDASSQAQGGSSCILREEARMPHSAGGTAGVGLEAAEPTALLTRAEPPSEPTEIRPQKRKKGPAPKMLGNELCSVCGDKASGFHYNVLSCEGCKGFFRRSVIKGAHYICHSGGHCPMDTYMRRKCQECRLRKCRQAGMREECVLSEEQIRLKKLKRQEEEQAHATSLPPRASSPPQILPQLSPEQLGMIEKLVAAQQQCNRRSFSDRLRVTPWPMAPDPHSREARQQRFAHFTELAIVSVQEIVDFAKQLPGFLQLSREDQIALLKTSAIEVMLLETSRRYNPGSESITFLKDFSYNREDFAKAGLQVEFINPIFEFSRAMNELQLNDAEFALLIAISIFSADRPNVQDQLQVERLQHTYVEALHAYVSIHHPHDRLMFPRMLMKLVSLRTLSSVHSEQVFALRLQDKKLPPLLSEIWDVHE

[3] = biological target: T1, Oxysterols receptor LXR-beta
[4] = biological target: T2, Oxysterols receptor LXR-alpha; type: functional, cell-based, CHO
[5] = biological target: T3, Peroxisome proliferator-activated receptor alpha (Homo sapiens, UniProt Q07869)
T3 sequence (Q07869 whole entry): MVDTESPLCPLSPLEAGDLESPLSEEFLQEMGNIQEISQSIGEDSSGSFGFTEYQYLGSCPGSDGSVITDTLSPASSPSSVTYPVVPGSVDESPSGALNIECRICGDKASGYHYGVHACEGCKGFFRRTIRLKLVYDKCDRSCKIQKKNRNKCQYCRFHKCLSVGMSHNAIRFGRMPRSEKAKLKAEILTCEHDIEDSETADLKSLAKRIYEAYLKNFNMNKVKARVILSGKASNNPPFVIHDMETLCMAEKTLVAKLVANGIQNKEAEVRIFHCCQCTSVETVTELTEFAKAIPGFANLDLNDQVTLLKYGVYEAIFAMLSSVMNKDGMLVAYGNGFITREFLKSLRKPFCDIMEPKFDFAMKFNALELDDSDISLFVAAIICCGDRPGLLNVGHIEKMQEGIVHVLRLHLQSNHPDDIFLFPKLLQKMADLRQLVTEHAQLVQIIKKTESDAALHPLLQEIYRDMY

[6] = biological target: T4, Peroxisome proliferator-activated receptor delta (Homo sapiens, UniProt Q03181)
T4 sequence (Q03181 whole entry): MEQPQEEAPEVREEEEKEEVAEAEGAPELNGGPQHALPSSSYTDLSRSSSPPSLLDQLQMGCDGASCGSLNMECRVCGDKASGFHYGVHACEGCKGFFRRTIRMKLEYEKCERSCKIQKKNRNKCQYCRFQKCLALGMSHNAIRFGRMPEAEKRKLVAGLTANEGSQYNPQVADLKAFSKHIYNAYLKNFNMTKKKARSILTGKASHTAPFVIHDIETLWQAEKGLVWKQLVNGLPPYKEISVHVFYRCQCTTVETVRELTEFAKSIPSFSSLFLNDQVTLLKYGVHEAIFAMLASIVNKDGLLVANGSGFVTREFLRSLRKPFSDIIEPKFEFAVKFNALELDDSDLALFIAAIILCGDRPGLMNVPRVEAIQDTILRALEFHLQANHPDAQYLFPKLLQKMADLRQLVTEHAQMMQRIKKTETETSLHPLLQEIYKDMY

Mus musculus = species on record: Mus musculus; conditions: in vivo
in vivo [7] = conditions: mouse, iv, 0.5 mg/kg
in vivo [8] = conditions: mouse
in vivo [9] = conditions: mouse, iv, 0.5 mg/kg; remark: listed apart in the source
[10] = biological target: T5, Nuclear receptor subfamily 1 group I member 2 (Homo sapiens, UniProt O75469)
T5 sequence (O75469 whole entry): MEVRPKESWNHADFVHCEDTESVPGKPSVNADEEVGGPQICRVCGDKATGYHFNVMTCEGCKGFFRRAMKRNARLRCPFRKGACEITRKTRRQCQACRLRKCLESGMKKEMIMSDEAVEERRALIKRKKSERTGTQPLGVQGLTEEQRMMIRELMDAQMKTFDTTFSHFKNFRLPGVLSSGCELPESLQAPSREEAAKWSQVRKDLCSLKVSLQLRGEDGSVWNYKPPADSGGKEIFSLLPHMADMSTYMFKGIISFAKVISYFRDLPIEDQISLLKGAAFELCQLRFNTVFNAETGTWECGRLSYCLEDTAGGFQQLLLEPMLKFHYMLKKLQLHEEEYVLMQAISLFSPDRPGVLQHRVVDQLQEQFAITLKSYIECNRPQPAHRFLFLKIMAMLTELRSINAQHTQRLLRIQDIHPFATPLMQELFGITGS

Structure (SMILES)	EC50 [1] [µM]	IC50 [2] [µM]	IC50 [3] [µM]	EC50 [4] [µM]	IC50 [5] [µM]	IC50 [6] [µM]	AUC (Mus musculus) [µM·kg·h/mg]	Vd (in vivo [7]) [L/kg]	half-life (in vivo [8]) [h]	clearance (in vivo [9]) [L/h/kg]	IC50 [10] [µM]
CCCc1c(OCCCN(C)c2ncc(CC(=O)O)cn2)ccc2c(C(F)(F)F)noc12	0.47	0.026	0.055	0.62	–	–	–	–	–	–	–
CCCc1c(OCCCn2nnc3cc(CC(=O)O)ccc32)ccc2c(C(F)(F)F)noc12	1.7	0.41	0.35	2.3	4.4	–	–	–	–	–	–
CCCc1c(OCCCSc2ccc(CC(=O)O)cc2Cl)ccc2c(C(F)(F)F)noc12	–	0.032	–	5.9	0.28	0.004	–	–	–	–	–
CCCc1c(OCCCN2C(=O)Cc3cc(CC(=O)O)ccc32)ccc2c(C(F)(F)F)noc12	0.14	0.019	0.013	0.18	–	–	1	2.9	1	2.76	> 10
CCCc1c(OCCCN(C=O)c2ccc(CC(=O)O)cc2)ccc2c(C(F)(F)F)noc12	–	6.4	–	–	–	–	–	–	–	–	–
CCCc1c(OCCCOc2ccc(CC(=O)O)cc2)ccc2c(C(F)(F)F)noc12	–	0.73	0.1	–	0.019	0.008	–	–	–	–	–
CCCc1c(OCCCn2ccc3cc(C(=O)O)ccc32)ccc2c(C(F)(F)F)noc12	2.8	0.072	0.199	1.9	8.3	–	–	–	–	–	–
CCCc1c(OCCCN(C(C)=O)c2ccc(CC(=O)O)cc2)ccc2c(C(F)(F)F)noc12	–	6.4	–	–	–	–	–	–	–	–	–
CCCc1c(OCCCN(CC)c2ccc(CC(=O)O)cc2)ccc2c(C(F)(F)F)noc12	–	0.11	0.14	–	2.6	8.6	–	–	–	–	–

Continued by falling IC50 [2], values first:

EC50 [1] [µM]	IC50 [2] [µM]	IC50 [3] [µM]	EC50 [4] [µM]	IC50 [5] [µM]	IC50 [6] [µM]	AUC (Mus musculus) [µM·kg·h/mg]	Vd (in vivo [7]) [L/kg]	half-life (in vivo [8]) [h]	clearance (in vivo [9]) [L/h/kg]	IC50 [10] [µM]	Structure (SMILES)
–	0.58	0.32	–	0.6	–	–	–	–	–	–	CCCc1c(OCCCN(C)c2ccc(CC(=O)O)cc2C)ccc2c(C(F)(F)F)noc12
8.6	0.18	0.41	–	–	1.8	–	–	–	–	–	CCCc1c(OCCCn2cnc3cc(CC(=O)O)ccc32)ccc2c(C(F)(F)F)noc12
5.1	0.079	0.19	6	–	–	–	–	–	–	–	CCCc1c(OCCCN(C)c2ccc(C(=O)O)cc2)ccc2c(C(F)(F)F)noc12
7.7	0.068	0.089	8	0.016	0.088	–	–	–	–	–	CCCc1c(OCCCNc2ccc(CC(=O)O)cc2)ccc2c(C(F)(F)F)noc12
9.7	0.039	0.065	–	0.23	–	–	–	–	–	–	CCCc1c(OCCCOc2ccc(CC(=O)O)cc2Cl)ccc2c(C(F)(F)F)noc12
0.36	0.018	0.025	0.45	0.31	0.31	–	–	–	–	–	CCCc1c(OCCCN(C)c2ccc(CC(=O)O)cc2)ccc2c(C(F)(F)F)noc12
